Measured values reported in ChEMBL document CHEMBL3124919, “Design, synthesis and biological evaluation of 3-[4-(7-chloro-quinolin-4-yl)-piperazin-1-yl]-propionic acid hydrazones as antiprotozoal agents” (Eur J Med Chem, 2014).
Active and inactive are the calls of the source. The rule behind the calls is not given here.

Experiments:
Entamoeba histolytica [1] = experiment: Antiprotozoal activity against Entamoeba histolytica HM-1:IMSS trophozoites after 72 hrs by microdilution method; type: functional, organism-based
Plasmodium falciparum [2] = experiment: Antimicrobial activity against erythrocytic stage of chloroquine-resistant Plasmodium falciparum W2 infected in human erythrocytes assessed as [3H]hypoxanthine incorporation at 1 ug/ml after 24 hrs by beta-radiation counting analysis; type: functional
[3] = Inhibition of beta-hematin formation at 2.5 mM after 24 hrs by spectrophotometry; type: physicochemical; details: 2500 µM
[4] = Cytotoxicity against BALB/c mouse splenocytes assessed as [3H]-thymidine incorporation after 24 hrs by beta-radiation counting analysis relative to control; type: cell-based; details: Splenocyte
Plasmodium falciparum [5] = experiment: Antimicrobial activity against erythrocytic stage of chloroquine-resistant Plasmodium falciparum W2 infected in human erythrocytes assessed as [3H]hypoxanthine incorporation after 24 hrs by beta-radiation counting analysis; type: functional, organism-based
[6] = Cytotoxicity against human erythrocytes assessed as hemolysis at 25 uM after 1 hr by spectrophotometry; type: cell-based; details: erythrocyte
Plasmodium falciparum [7] = experiment: Antimicrobial activity against ring stage chloroquine-resistant Plasmodium falciparum W2 infected in human erythrocytes assessed as inhibition of schizont stage parasite growth at 0.5 to 1 uM after 48 hrs by light microscopy; type: functional, organism-based
Entamoeba histolytica [8] = experiment: Ratio of metronidazole IC50 to compound IC50 for Entamoeba histolytica HM-1:IMSS trophozoites; type: functional
[9] = Selectivity index, ratio of IC50 for BALB/c mouse splenocytes to IC50 for Entamoeba histolytica HM-1:IMSS trophozoites
[10] = Plasmodium falciparum, W2, read-out: IC50

Structure (SMILES) | IC50 (Entamoeba histolytica [1]) | inhibition at 1 µg/mL (Plasmodium falciparum [2]) | IC50 [4] | IC50 (Plasmodium falciparum [5]; [10]) | other results
O=C(CCN1CCN(c2ccnc3cc(Cl)ccc23)CC1)N/N=C/c1cccc([N+](=O)[O-])c1 | 12.6 µM | 19.9% | – | – | –
CCOC(OCC)c1ccc(/C=N/NC(=O)CCN2CCN(c3ccnc4cc(Cl)ccc34)CC2)cc1 | > 100 µM | 71.7% | – | – | –
NNC(=O)CCN1CCN(c2ccnc3cc(Cl)ccc23)CC1 | – | 74.1% | > 100 µM | 41.7 µM | inhibition (INH) [3]: 21.7%
O=C(CCN1CCN(c2ccnc3cc(Cl)ccc23)CC1)N/N=C/c1ccccc1[N+](=O)[O-] | 11.3 µM | 73.1% | – | – | –
O=C(CCN1CCN(c2ccnc3cc(Cl)ccc23)CC1)N/N=C/c1ccc([N+](=O)[O-])cc1 | 0.95 µM | 38.4% | 12.1 µM | – | –
COc1cc(/C=N/NC(=O)CCN2CCN(c3ccnc4cc(Cl)ccc34)CC2)c(Br)c(OC)c1OC | 3.7 µM | 42.9% | 9.6 µM | – | IC50 (Plasmodium falciparum [5]): Not Active
O=C(CCN1CCN(c2ccnc3cc(Cl)ccc23)CC1)N/N=C/c1c[nH]c2ccccc12 | 9.6 µM | 81.5% | 5.7 µM | 3.3 µM | inhibition (INH) [3]: 43.3%; Activity [6]: Non-toxic
CC(C)c1ccc(/C=N/NC(=O)CCN2CCN(c3ccnc4cc(Cl)ccc34)CC2)cc1 | 17.1 µM | 97.5% | 7.9 µM | 1.7 µM | inhibition (INH) [3]: 94%; Activity [6]: Non-toxic
O=C(CCN1CCN(c2ccnc3cc(Cl)ccc23)CC1)N/N=C/c1ccc(O)cc1 | > 100 µM | 80.6% | – | – | –
Cc1ncc([N+](=O)[O-])n1CCO [METRONIDAZOLE] | 1.5 µM | – | 5.4 µM | – | –
COc1ccc(OC)c(/C=N/NC(=O)CCN2CCN(c3ccnc4cc(Cl)ccc34)CC2)c1 | 8.2 µM | 37.4% | – | – | –
COc1ccc(/C=N/NC(=O)CCN2CCN(c3ccnc4cc(Cl)ccc34)CC2)cc1 | 19.7 µM | 43% | – | – | –
O=C(CCN1CCN(c2ccnc3cc(Cl)ccc23)CC1)N/N=C/c1ccccc1Cl | 12.3 µM | 97.9% | 10.8 µM | 0.78 µM | inhibition (INH) [3]: 87.3%; Activity [6]: Non-toxic
O=C(CCN1CCN(c2ccnc3cc(Cl)ccc23)CC1)N/N=C/c1ccc(Cl)cc1 | 87.2 µM | 98.4% | 0.2 µM | 1.4 µM | –
COc1cc(/C=N/NC(=O)CCN2CCN(c3ccnc4cc(Cl)ccc34)CC2)cc(Br)c1O | 20.5 µM | 41.5% | – | – | IC50 (Plasmodium falciparum [5]): Not Active
CCc1ccc(/C=N/NC(=O)CCN2CCN(c3ccnc4cc(Cl)ccc34)CC2)cc1 | 11.1 µM | 97.8% | – | – | –
COc1cc(/C=N/NC(=O)CCN2CCN(c3ccnc4cc(Cl)ccc34)CC2)cc(OC)c1OC | 12.4 µM | 47.4% | – | – | –
COc1cc(/C=N/NC(=O)CCN2CCN(c3ccnc4cc(Cl)ccc34)CC2)ccc1O | 21.3 µM | 99.1% | 9.4 µM | 2.1 µM | inhibition (INH) [3]: 50.7%; Activity [6]: Non-toxic

Structure (SMILES) | IC50 (Entamoeba histolytica [1]) | inhibition at 1 µg/mL (Plasmodium falciparum [2]) | IC50 [4] | IC50 (Plasmodium falciparum [5]; [10]) | other results
Cc1ccc(/C=N/NC(=O)CCN2CCN(c3ccnc4cc(Cl)ccc34)CC2)cc1 | 8.1 µM | 81.4% | – | – | –
O=C(CCN1CCN(c2ccnc3cc(Cl)ccc23)CC1)N/N=C/c1cccc(Cl)c1 | 7.7 µM | 97.3% | > 100 µM | – | –
O=C(CCN1CCN(c2ccnc3cc(Cl)ccc23)CC1)N/N=C/c1ccccc1O | 25.6 µM | 98.9% | 11.5 µM | 0.33 µM | inhibition (INH) [3]: 83.2%; Activity (Plasmodium falciparum [7]): Active; Activity [6]: Non-toxic
O=C(CCN1CCN(c2ccnc3cc(Cl)ccc23)CC1)N/N=C/c1cc(Br)c(O)c(Br)c1 | 6.6 µM | 28% | – | – | IC50 (Plasmodium falciparum [5]): Not Active
CC(C)Oc1ccc(/C=N/NC(=O)CCN2CCN(c3ccnc4cc(Cl)ccc34)CC2)cc1 | 5.3 µM | 98% | 3.6 µM | 0.8 µM | –
COc1ccc(/C=N/NC(=O)CCN2CCN(c3ccnc4cc(Cl)ccc34)CC2)cc1OC | 11.6 µM | 98.4% | – | – | –
CCOC(=O)COc1ccc(/C=N/NC(=O)CCN2CCN(c3ccnc4cc(Cl)ccc34)CC2)cc1OC | > 100 µM | 71.7% | – | – | –
CN(C)c1ccc(/C=N/NC(=O)CCN2CCN(c3ccnc4cc(Cl)ccc34)CC2)cc1 | 15.2 µM | 98% | > 100 µM | 1.3 µM | inhibition (INH) [3]: 94.2%; Activity [6]: Non-toxic
COc1cc(/C=N/NC(=O)CCN2CCN(c3ccnc4cc(Cl)ccc34)CC2)ccc1OC(C)=O | 0.13 µM | 0% | 15.8 µM | – | Ratio IC50 (Entamoeba histolytica [8]): 10; Ratio IC50 [9]: 121
O=C(CCN1CCN(c2ccnc3cc(Cl)ccc23)CC1)N/N=C/c1ccc2c(c1)OCO2 | > 100 µM | 27.8% | – | – | –
COc1cc(/C=N/NC(=O)CCN2CCN(c3ccnc4cc(Cl)ccc34)CC2)ccc1OC(C)C | 15.5 µM | 98.6% | 8.8 µM | 4.5 µM | inhibition (INH) [3]: 15.7%; Activity [6]: Non-toxic
O[C@@H](c1cc(C(F)(F)F)nc2c(C(F)(F)F)cccc12)[C@H]1CCCCN1 (relative stereo) [(S,R)-MEFLOQUINE] | – | – | 9.5 µM | 0.04 µM | –
O=C(CCN1CCN(c2ccnc3cc(Cl)ccc23)CC1)N/N=C/c1ccccn1 | > 100 µM | 0% | – | – | –
O=C(CCN1CCN(c2ccnc3cc(Cl)ccc23)CC1)N/N=C/c1ccccc1C(F)(F)F | 8.1 µM | 59.6% | – | – | –
CCN(CC)CCCC(C)Nc1ccnc2cc(Cl)ccc12 (configuration not stated) [CHLOROQUINE] | – | – | – | – | inhibition (INH) [3]: 87.1%
CCOc1ccccc1/C=N/NC(=O)CCN1CCN(c2ccnc3cc(Cl)ccc23)CC1 | > 100 µM | 28.1% | – | – | –
O=C(CCN1CCN(c2ccnc3cc(Cl)ccc23)CC1)N/N=C/c1ccccc1 | 6.6 µM | 93.3% | 0.3 µM | 0.2 µM | –
CCOc1ccc(/C=N/NC(=O)CCN2CCN(c3ccnc4cc(Cl)ccc34)CC2)cc1 | 12 µM | 14.9% | – | – | –
